This passage reports IC50 results from patent US10442763B2, “EBNA1 inhibitors and methods using same” (priority 2015, dated 2019).

Structures are written as SMILES. pIC50: −log10 of the molar value.

In the experiment the target is T1, His-EBNA1 (DNA binding domain of EBNA1, amino acids 459-607) (Epstein-Barr virus, UniProt P03211).
T1 construct: made in house; host or cells: E. coli
T1 sequence (P03211 459-607): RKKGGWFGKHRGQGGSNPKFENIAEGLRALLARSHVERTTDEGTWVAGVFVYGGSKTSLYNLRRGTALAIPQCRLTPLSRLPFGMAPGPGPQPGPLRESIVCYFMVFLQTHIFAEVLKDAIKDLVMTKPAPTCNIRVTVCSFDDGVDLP
In words: Inhibition of 5'-biotin-oPL4624 binding to His-EBNA1 using Alpha Screen technology. Here is the method: Inhibition of 5′-Biotin-oPL4624 Binding to his-EBNA1 Using Alpha Screen Technology
Assays were performed using the DNA binding domain of EBNA1 (amino acids 459-607), which was His-tagged (His-EBNA1) and the self-complementary biotinylated (bt) oligonucleotide with the sequence 5′-bt-[…]-ATGCTACCC-3′ (bt-oPL4624; or 5′-bt-SEQ ID NO: 1). The protein was expressed in E. coli and purified according to Barwell, et al., 1995, J Biol Chem. 270:20556-9.). The bt-oPL4624 oligonucleotide was purchased from Integrated DNA Technologies, Inc (IDT). AlphaScreen donor, acceptor beads and white, opaque 384-well assay plates were purchased from PerkinElmer, Inc.
Assays contained 15 nM His-EBNA1, 0.2 nM bt-oPL4624, 5 μg/mL AlphaScreen streptavidin donor beads and nickel chelate acceptor beads, and a series of concentrations of test compound ranging from 3.2 nM to 100 μM in a total volume of 40 μL assay buffer (25 mM Tris, pH 7.2, 160 mM NaCl, 1 mM MgCl2). His-EBNA1 (30 nM) and bt-oPL4624 (0.4 nM) were preincubated with 10 μg/mL nickel chelate AlphaScreen acceptor bead, or 10 μg/mL streptavidin AlphaScreen donor bead, respectively, for 30 minutes at room temperature in assay buffer. Twenty microliters of His-EBNA1/acceptor bead mix and bt-oPL4624/donor bead mix were transferred to assay plates containing 0.4 μL of 1:3 serial dilutions of test compounds previously prepared in DMSO at concentrations ranging from 0.32 μM to 10 mM. Non-specific binding was determined with 5 μg/mL AlphaScreen acceptor bead in the absence of His-EBNA1. After 2 hr incubation at room temperature, the AlphaScreen signal was measured on the Envision plate reader (PerkinElmer, Inc.) at 680 nm excitation and 570 nm emission. Inhibition values at each concentration of test compound were determined by setting 100% equal to raw data values in the absence of EBNA1 and 0% equal to the raw data values in the presence of EBNA1. Nonlinear regression fits of the inhibition values to a one-site dose-response equation were performed using GraphPad Prism.
In turn, `CS(=O)(=O)N1CCC(Cc2ccc(C#Cc3cccc(C(=O)O)c3-c3ccc4cc[nH]c4c3)cc2)CC1` [Entry 52] showed a pIC50 of 5.00 to 6.00.
As for `O=C(O)c1cccc(C#Cc2ccc(CC3CCN(S(=O)(=O)C(F)(F)F)CC3)cc2)c1-c1ccc2cc[nH]c2c1` [Entry 53], the figure is 5.00 to 6.00; as for `CC(C)S(=O)(=O)N1CCC(Cc2ccc(C#Cc3cccc(C(=O)O)c3-c3ccc4cc[nH]c4c3)cc2)CC1` [Entry 54], 5.00 to 6.00; as for `CC(=O)N1CCC(Cc2ccc(C#Cc3cccc(C(=O)O)c3-c3ccc4cc[nH]c4c3)cc2)CC1` [Entry 55], 5.00 to 6.00.
The value for `CC(=O)N1Cc2ccc(C#Cc3cccc(C(=O)O)c3-c3ccc4cc[nH]c4c3)cc2C1` [Entry 56] was 5.00 to 6.00.
The value for `CC(C)S(=O)(=O)N1Cc2ccc(C#Cc3cccc(C(=O)O)c3-c3ccc4cc[nH]c4c3)cc2C1` [Entry 57] was 5.00 to 6.00; that for `CS(=O)(=O)N1CCC(N2CCc3ccc(C#Cc4cccc(C(=O)O)c4-c4ccc5cc[nH]c5c4)cc3C2)C1` (stereo not shown) [Entry 58] was 4.00 to 5.00; that for `CS(=O)(=O)N1CCC(CN2CCc3cc(C#Cc4cccc(C(=O)O)c4-c4ccc5cc[nH]c5c4)ccc3C2)CC1` [Entry 59] was 4.00 to 5.00.
`CS(=O)(=O)N1CC(N2CCc3cc(C#Cc4cccc(C(=O)O)c4-c4ccc5cc[nH]c5c4)ccc3C2)C1` [Entry 60]: the pIC50 is 4.00 to 5.00.
Consider `CS(=O)(=O)N1CCC(CN2CCc3cc(C#Cc4cccc(C(=O)O)c4-c4ccc5cc[nH]c5c4)ccc3C2)C1` (stereo not shown) [Entry 61], for which the pIC50 is 4.00 to 5.00.
As for `CS(=O)(=O)N1CCC(CN2CCc3ccc(C#Cc4cccc(C(=O)O)c4-c4ccc5cc[nH]c5c4)cc3C2)C1` (stereo not shown) [Entry 62], the figure is 4.00 to 5.00.
The value for `CC(=O)N1CCC(CN2CCc3ccc(C#Cc4cccc(C(=O)O)c4-c4ccc5cc[nH]c5c4)cc3C2)C1` (stereo not shown) [Entry 63] was 4.00 to 5.00; that for `CS(=O)(=O)N1CC(CN2CCc3cc(C#Cc4cccc(C(=O)O)c4-c4ccc5cc[nH]c5c4)ccc3C2)C1` [Entry 64] was 4.00 to 5.00; that for `CS(=O)(=O)N1CC(CN2CCc3ccc(C#Cc4cccc(C(=O)O)c4-c4ccc5cc[nH]c5c4)cc3C2)C1` [Entry 65] was 4.00 to 5.00.
As for `CS(=O)(=O)Nc1cccc(CN2CCc3cc(C#Cc4cccc(C(=O)O)c4-c4ccc5cc[nH]c5c4)ccc3C2)c1` [Entry 66], the figure is 5.00 to 6.00; as for `CS(=O)(=O)Nc1cccc(CN2CCc3ccc(C#Cc4cccc(C(=O)O)c4-c4ccc5cc[nH]c5c4)cc3C2)c1` [Entry 67], 5.00 to 6.00.
For `CS(=O)(=O)N1CCC(N2Cc3ccc(C#Cc4cccc(C(=O)O)c4-c4ccc5cc[nH]c5c4)cc3C2)C1` (stereo not shown) [Entry 68], the negative logarithm of the IC50 (pIC50) was 5.00 to 6.00.
As for `CS(=O)(=O)N1CC(N2Cc3ccc(C#Cc4cccc(C(=O)O)c4-c4ccc5cc[nH]c5c4)cc3C2)C1` [Entry 69], the figure is 5.00 to 6.00; as for `CS(=O)(=O)N1CCC(CN2Cc3ccc(C#Cc4cccc(C(=O)O)c4-c4ccc5cc[nH]c5c4)cc3C2)C1` (stereo not shown) [Entry 70], 5.00 to 6.00; as for `CS(=O)(=O)N1CC(CN2Cc3ccc(C#Cc4cccc(C(=O)O)c4-c4ccc5cc[nH]c5c4)cc3C2)C1` [Entry 71], 4.00 to 5.00.
As for `CS(=O)(=O)N1CCC(CN2Cc3ccc(C#Cc4cccc(C(=O)O)c4-c4ccc5cc[nH]c5c4)cc3C2)CC1` [Entry 72], the figure is 4.00 to 5.00.
Consider `CS(=O)(=O)N1CCc2ccc(C#Cc3cccc(C(=O)O)c3-c3ccc4cc[nH]c4c3)cc2C1` [Entry 73], for which the pIC50 is 5.00 to 6.00.
The value for `CC(C)S(=O)(=O)N1CCc2ccc(C#Cc3cccc(C(=O)O)c3-c3ccc4cc[nH]c4c3)cc2C1` [Entry 74] was 5.00 to 6.00; that for `CCC(=O)N1CCc2ccc(C#Cc3cccc(C(=O)O)c3-c3ccc4cc[nH]c4c3)cc2C1` [Entry 75] was 4.00 to 5.00.
The value for `CS(=O)(=O)N1CCc2cc(C#Cc3cccc(C(=O)O)c3-c3ccc4cc[nH]c4c3)ccc2C1` [Entry 76] was 5.00 to 6.00; that for `CC(C)S(=O)(=O)N1CCc2cc(C#Cc3cccc(C(=O)O)c3-c3ccc4cc[nH]c4c3)ccc2C1` [Entry 77] was 5.00 to 6.00; that for `CC(=O)N1CCc2cc(C#Cc3cccc(C(=O)O)c3-c3ccc4cc[nH]c4c3)ccc2C1` [Entry 78] was 5.00 to 6.00.
As for `CCC(=O)N1CCc2cc(C#Cc3cccc(C(=O)O)c3-c3ccc4cc[nH]c4c3)ccc2C1` [Entry 79], the figure is 5.00 to 6.00; as for `N#Cc1cccc(OCc2ccc(C#Cc3cccc(C(=O)O)c3-c3ccc4cc[nH]c4c3)cc2)c1` [Entry 81], 5.00 to 6.00.
The compound `NC(=O)c1cccc(OCc2ccc(C#Cc3cccc(C(=O)O)c3-c3ccc4cc[nH]c4c3)cc2)c1` [Entry 82] had a pIC50 of 5.00 to 6.00.
As for `O=C(O)c1cccc(C#Cc2ccc(COc3ccc(C(F)(F)F)cc3)cc2)c1-c1ccc2cc[nH]c2c1` [Entry 83], the figure is 5.00 to 6.00; as for `O=C(O)c1cccc(C#Cc2ccc(COc3cccc(C(F)(F)F)c3)cc2)c1-c1ccc2cc[nH]c2c1` [Entry 84], 5.00 to 6.00.
Regarding `COc1ccc(OCc2ccc(C#Cc3cccc(C(=O)O)c3-c3ccc4cc[nH]c4c3)cc2)cc1` [Entry 85], the negative-log IC50 (pIC50) is 5.00 to 6.00.
The value for `NC(=O)c1ccc(OCc2ccc(C#Cc3cccc(C(=O)O)c3-c3ccc4cc[nH]c4c3)cc2)cc1` [Entry 86] was 5.00 to 6.00; that for `COc1cccc(OCc2ccc(C#Cc3cccc(C(=O)O)c3-c3ccc4cc[nH]c4c3)cc2)c1` [Entry 87] was 5.00 to 6.00; that for `O=C(O)c1cccc(C#Cc2ccc(COc3ccccc3)cc2)c1-c1ccc2cc[nH]c2c1` [Entry 88] was 5.00 to 6.00.
As for `O=C(O)c1cccc(C#Cc2ccc(COc3ccccc3F)cc2)c1-c1ccc2cc[nH]c2c1` [Entry 89], the figure is 5.00 to 6.00; as for `O=C(O)c1cccc(C#Cc2ccc(COc3cccnc3)cc2)c1-c1ccc2cc[nH]c2c1` [Entry 90], 5.00 to 6.00.
As for `O=C(O)c1cccc(C#Cc2ccc(COc3cccc(Cl)c3)cc2)c1-c1ccc2cc[nH]c2c1` [Entry 91], the figure is 5.00 to 6.00; as for `O=C(O)c1cccc(C#Cc2ccc(COc3ccc(Cl)c(Cl)c3)cc2)c1-c1ccc2cc[nH]c2c1` [Entry 92], 5.00 to 6.00; as for `O=C(O)c1cccc(C#Cc2ccc(COc3ccccc3C(F)(F)F)cc2)c1-c1ccc2cc[nH]c2c1` [Entry 93], 5.00 to 6.00.
Compound `N#Cc1ccccc1OCc1ccc(C#Cc2cccc(C(=O)O)c2-c2ccc3cc[nH]c3c2)cc1` [Entry 94] showed a pIC50 of 5.00 to 6.00.
As for `CS(=O)(=O)c1ccc(OCc2ccc(C#Cc3cccc(C(=O)O)c3-c3ccc4cc[nH]c4c3)cc2)cc1` [Entry 95], the figure is 5.00 to 6.00; as for `O=C(O)c1cccc(C#Cc2ccc(COc3cncnc3)cc2)c1-c1ccc2cc[nH]c2c1` [Entry 96], 5.00 to 6.00; as for `CS(=O)(=O)c1ccccc1OCc1ccc(C#Cc2cccc(C(=O)O)c2-c2ccc3cc[nH]c3c2)cc1` [Entry 97], 5.00 to 6.00.
The value for `CS(=O)(=O)c1cccc(OCc2ccc(C#Cc3cccc(C(=O)O)c3-c3ccc4cc[nH]c4c3)cc2)c1` [Entry 98] was 5.00 to 6.00; that for `CS(=O)(=O)Nc1cccc(-c2cccc(C#Cc3cccc(C(=O)O)c3-c3ccc4cc[nH]c4c3)c2)c1` [Entry 99] was 5.00 to 6.00.
As for `O=C(O)c1cccc(C#Cc2ccc(OC3CCOCC3)nc2)c1-c1ccc2cc[nH]c2c1` [Entry 100], the figure is 5.00 to 6.00.
`CCCNC(=O)c1cc2ccc(C#Cc3cccc(C(=O)O)c3-c3ccc4cc[nH]c4c3)cc2[nH]1` [Entry 101] showed a pIC50 of 5.00 to 6.00.
As for `O=C(O)c1cccc(C#Cc2cccc(CN3CCc4ccccc4C3)c2)c1-c1ccc2cc[nH]c2c1` [Entry 102], the figure is 5.00 to 6.00; as for `N#Cc1cc(C#Cc2cccc(C(=O)O)c2-c2ccc3cc[nH]c3c2)ccc1OC1CCOCC1` [Entry 103], 5.00 to 6.00.
`CCOC(=O)N1CCN(Cc2cccc(C#Cc3cccc(C(=O)O)c3-c3ccc4cc[nH]c4c3)c2)CC1` [Entry 104] had a negative logarithm of the IC50 (pIC50) of 4.00 to 5.00.
The value for `O=C(O)c1cccc(C#Cc2ccc(C3(CO)COC3)cc2)c1-c1ccc2cc[nH]c2c1` [Entry 105] was 5.00 to 6.00.
As for `Nc1cc(-c2cccc(C#Cc3cccc(C(=O)O)c3-c3ccc4cc[nH]c4c3)c2)n[nH]1` [Entry 106], the figure is 5.00 to 6.00; as for `O=C(O)c1cccc(C#Cc2cccc(-c3cnco3)c2)c1-c1ccc2cc[nH]c2c1` [Entry 107], 5.00 to 6.00.
As for `O=C(O)c1cccc(C#Cc2ccc(C(=O)C3CCOCC3)cc2)c1-c1ccc2cc[nH]c2c1` [Entry 108], the figure is 5.00 to 6.00.
Regarding `O=C(O)c1cccc(C#Cc2ccccc2)c1-c1ccc2cc[nH]c2c1F` [Entry 109], the negative-log IC50 (pIC50) was 4.00 to 5.00.
The value for `O=C(O)c1cccc(C#Cc2ccccc2)c1-c1ccc2ncsc2c1` [Entry 110] was 4.00 to 5.00.
